Results as given in paper PMC9395446, “First-in-human phase 1/1b study to evaluate sitravatinib in patients with advanced solid tumors” (Investigational New Drugs, 2022).

Assay: Safety in phase 1/1b study (DLTs, TRAEs, TEAEs; CTCAE v4.03)
Format: in vivo, human
From the text: Safety assessments included evaluation of DLTs, AEs, physical examinations, vital sign measurements, electrocardiogram recordings and laboratory tests.
A DLT was defined as a grade ≥ 4 hematologic abnormality lasting ≥ 4 days; grade 3 thrombocytopenia with clinically significant bleeding; febrile neutropenia; clinically significant grade ≥ 3 non-hematologic AEs not related to underlying malignancy; intolerable grade 2 AEs; or toxicity resulting in an inability to deliver 80% of the dose during the first treatment cycle.
The safety population included all patients who received ≥ 1 dose of sitravatinib. […] The PK evaluable population included all patients with sufficient concentration-time data for PK parameter evaluation. The modified intent-to-treat (mITT) population included all phase 1b patients who received ≥ 1 dose of study drug.

COCCNCc1ccc(-c2cc3nccc(Oc4ccc(NC(=O)C5(C(=O)Nc6ccc(F)cc6)CC5)cc4F)c3s2)nc1 [sitravatinib, Sitravatinib]
Patients discontinued due to TRAEs (120 mg): 11.3% | Patients with grade ≥ 3 TRAEs (120 mg arm): 51.6% | Patients with serious TRAEs (120 mg arm): 8.1% | ALT increased TEAE, any grade (120 mg phase 1b): 17 (27.4) n (%) | ALT increased TEAE, grade ≥3 (120 mg phase 1b): 1 (1.6) n (%) | ALT increased TRAE, any grade (120 mg phase 1b): 15 (24.2) n (%) | ALT increased TRAE, grade ≥3 (120 mg phase 1b): 1 (1.6) n (%) | AST increased TEAE, any grade (120 mg phase 1b): 16 (25.8) n (%) | AST increased TEAE, grade ≥3 (120 mg phase 1b): 0 n (%) | AST increased TRAE, any grade (120 mg phase 1b): 14 (22.6) n (%) | AST increased TRAE, grade ≥3 (120 mg phase 1b): 0 n (%) | Abdominal pain TEAE, any grade (120 mg phase 1b): 14 (22.6) n (%) | Abdominal pain TEAE, grade ≥3 (120 mg phase 1b): 3 (4.8) n (%) | Abdominal pain TRAE, any grade (120 mg phase 1b): 8 (12.9) n (%) | Abdominal pain TRAE, grade ≥3 (120 mg phase 1b): 0 n (%) | Anemia TEAE, any grade (120 mg phase 1b): 10 (16.1) n (%) | Anemia TEAE, grade ≥3 (120 mg phase 1b): 3 (4.8) n (%) | Any TEAE (120 mg phase 1b): 60 (96.8) n (%) | Any TRAE (120 mg phase 1b): 58 (93.5) n (%) | Asthenia TEAE, any grade (120 mg phase 1b): 7 (11.3) n (%) | Asthenia TEAE, grade ≥3 (120 mg phase 1b): 0 n (%) | Back pain TEAE, any grade (120 mg phase 1b): 6 (9.7) n (%) | Back pain TEAE, grade ≥3 (120 mg phase 1b): 0 n (%) | Blood and lymphatic system disorders TEAE, any grade (120 mg phase 1b): 16 (25.8) n (%) | Blood and lymphatic system disorders TEAE, grade ≥3 (120 mg phase 1b): 7 (11.3) n (%) | Blood creatinine increased TEAE, any grade (120 mg phase 1b): 3 (4.8) n (%) | Blood creatinine increased TEAE, grade ≥3 (120 mg phase 1b): 0 n (%) | Cardiac disorders TEAE, any grade (120 mg phase 1b): 6 (9.7) n (%) | Cardiac disorders TEAE, grade ≥3 (120 mg phase 1b): 2 (3.2) n (%) | Constipation TEAE, any grade (120 mg phase 1b): 21 (33.9) n (%) | Constipation TEAE, grade ≥3 (120 mg phase 1b): 0 n (%) | Constipation TRAE, any grade (120 mg phase 1b): 11 (17.7) n (%) | Constipation TRAE, grade ≥3 (120 mg phase 1b): 0 n (%) | Cough TEAE, any grade (120 mg phase 1b): 7 (11.3) n (%) | Cough TEAE, grade ≥3 (120 mg phase 1b): 0 n (%) | Decreased appetite TEAE, any grade (120 mg phase 1b): 21 (33.9) n (%) | Decreased appetite TEAE, grade ≥3 (120 mg phase 1b): 2 (3.2) n (%) | Decreased appetite TRAE, any grade (120 mg phase 1b): 17 (27.4) n (%) | Decreased appetite TRAE, grade ≥3 (120 mg phase 1b): 1 (1.6) n (%) | Dehydration TEAE, any grade (120 mg phase 1b): 8 (12.9) n (%) | Dehydration TEAE, grade ≥3 (120 mg phase 1b): 0 n (%) | Diarrhea TEAE, any grade (120 mg phase 1b): 36 (58.1) n (%) | Diarrhea TEAE, grade ≥3 (120 mg phase 1b): 4 (6.5) n (%) | Diarrhea TRAE, any grade (120 mg phase 1b): 31 (50.0) n (%) | Diarrhea TRAE, grade ≥3 (120 mg phase 1b): 4 (6.5) n (%) | Dizziness TEAE, any grade (120 mg phase 1b): 10 (16.1) n (%) | Dizziness TEAE, grade ≥3 (120 mg phase 1b): 0 n (%) | Dizziness TRAE, any grade (120 mg phase 1b): 6 (9.7) n (%) | Dizziness TRAE, grade ≥3 (120 mg phase 1b): 0 n (%) | Dry mouth TEAE, any grade (120 mg phase 1b): 7 (11.3) n (%) | Dry mouth TEAE, grade ≥3 (120 mg phase 1b): 0 n (%) | Dry mouth TRAE, any grade (120 mg phase 1b): 7 (11.3) n (%) | Dry mouth TRAE, grade ≥3 (120 mg phase 1b): 0 n (%) | Dysphonia TEAE, any grade (120 mg phase 1b): 16 (25.8) n (%) | Dysphonia TEAE, grade ≥3 (120 mg phase 1b): 0 n (%) | Dysphonia TRAE, any grade (120 mg phase 1b): 12 (19.4) n (%) | Dysphonia TRAE, grade ≥3 (120 mg phase 1b): 0 n (%) | Dyspnea TEAE, any grade (120 mg phase 1b): 5 (8.1) n (%) | Dyspnea TEAE, grade ≥3 (120 mg phase 1b): 1 (1.6) n (%) | Edema peripheral TEAE, any grade (120 mg phase 1b): 6 (9.7) n (%) | Edema peripheral TEAE, grade ≥3 (120 mg phase 1b): 0 n (%) | Endocrine disorders TEAE, any grade (120 mg phase 1b): 20 (32.3) n (%) | Fatigue TEAE, any grade (120 mg phase 1b): 26 (41.9) n (%) | Fatigue TEAE, grade ≥3 (120 mg phase 1b): 7 (11.3) n (%) | Fatigue TRAE, any grade (120 mg phase 1b): 21 (33.9) n (%) | Fatigue TRAE, grade ≥3 (120 mg phase 1b): 6 (9.7) n (%) | Gastrointestinal disorders TEAE, any grade (120 mg phase 1b): 53 (85.5) n (%) | General disorders and administration site conditions TEAE, any grade (120 mg phase 1b): 38 (61.3) n (%) | General disorders and administration site conditions TEAE, grade ≥3 (120 mg phase 1b): 8 (12.9) n (%) | Headache TEAE, grade ≥3 (120 mg phase 1b): 1 (1.6) n (%) | Hypertension TEAE, any grade (120 mg phase 1b): 25 (40.3) n (%) | Hypertension TEAE, grade ≥3 (120 mg phase 1b): 12 (19.4) 12 (19.4) n (%) | Hypertension TRAE, any grade (120 mg phase 1b): 24 (38.7) n (%) | Hypertension TRAE, grade ≥3 (120 mg phase 1b): 11 (17.7) n (%) | Hypokalemia TEAE, any grade (120 mg phase 1b): 4 (6.5) n (%) | Hypokalemia TEAE, grade ≥3 (120 mg phase 1b): 0 n (%) | Hypomagnesemia TEAE, any grade (120 mg phase 1b): 4 (6.5) n (%) | Hypomagnesemia TEAE, grade ≥3 (120 mg phase 1b): 0 n (%) | Hyponatremia TEAE, any grade (120 mg phase 1b): 6 (9.7) n (%)
